Results reported in patent US9221804B2, “Secondary alcohol quinolinyl modulators of RORγt” (Janssen Pharmaceutica NV, priority 2013, dated 2015).

What was measured:
[1] = target: T1, human RORγt ligand binding domain (RORγt LBD) (Homo sapiens, UniProt P51449); assay: RORγt ThermoFluor assay (thermal shift binding affinity); details: 0.065 mg/mL RORγt, pH 7.0; estimated from concentration response curves
T1 construct: His-tag (N); TurboTEV protease cleavage site (ENLYFQG) (N); made in house; host or cells: E. coli (pHIS1, modified pET vector)
T1 sequence (P51449 with tags, fused parts or gaps): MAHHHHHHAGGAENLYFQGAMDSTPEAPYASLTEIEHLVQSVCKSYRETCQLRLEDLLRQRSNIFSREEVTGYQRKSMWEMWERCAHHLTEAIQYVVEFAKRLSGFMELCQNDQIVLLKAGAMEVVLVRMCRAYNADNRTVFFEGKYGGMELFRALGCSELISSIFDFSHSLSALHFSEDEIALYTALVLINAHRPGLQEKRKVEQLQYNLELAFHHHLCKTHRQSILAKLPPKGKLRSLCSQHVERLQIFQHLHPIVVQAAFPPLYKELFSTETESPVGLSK
Description: This approach is applicable to a wide variety of systems, and rigorous in theoretical interpretation through quantitation of equilibrium binding constants (KD).
The shift in the melting point described as a ΔTm is proportional to the concentration and affinity of the ligand. The compound potency may be compared as a rank order of either ΔTm values at a single compound concentration or in terms of KD values, estimated from concentration response curves.
ThermoFluor® experiments were carried out using instruments owned by Janssen Research and Discovery, L.L.C. through its acquisition of 3-Dimensional Pharmaceuticals, Inc. 1,8-ANS (Invitrogen) was used as a fluorescent dye. […]
Fluorescence was measured by continuous illumination with UV light (Hamamatsu LC6) supplied via fiber optic and filtered through a band-pass filter (380-400 nm; >6 OD cutoff). Fluorescence emission of the entire 384-well plate was detected by measuring light intensity using a CCD camera (Sensys, Roper Scientific) filtered to detect 500±25 nm, resulting in simultaneous and independent readings of all 384 wells. Images were collected at each temperature, and the sum of the pixel intensity in a given area of the assay plate was recorded versus temperature. […]

human RORγt LBD = target: T2, human RORγt LBD (Homo sapiens, UniProt P51449); assay: RORγt (LBD) Reporter Assay (GAL4 luciferase, HEK293T); format: cell-based; details: HEK293T cells; for IC50: 24 hours with compound
T2 construct: expressed in transfected cells; host or cells: HEK293T
T2 sequence (P51449 258-518): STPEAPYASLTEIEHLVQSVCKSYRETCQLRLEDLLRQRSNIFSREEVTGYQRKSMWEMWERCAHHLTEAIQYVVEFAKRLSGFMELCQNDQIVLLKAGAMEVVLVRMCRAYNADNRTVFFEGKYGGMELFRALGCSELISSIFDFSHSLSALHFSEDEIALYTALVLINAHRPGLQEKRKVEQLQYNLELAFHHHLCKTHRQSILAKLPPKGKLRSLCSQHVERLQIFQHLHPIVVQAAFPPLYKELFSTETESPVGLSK
Description: Compounds were assessed for RORgt functional modulation using either the RORgt ligand binding domain (LBD) reporter assay, or the RORgt full-length (FL) reporter assay.
A reporter assay was used to test functional activity of RORγt modulatory compounds on transcriptional activation driven by the RORγt LBD. Cells used in the assay were co-transfected with two constructs. The first construct, pBIND-RORγt LBD, contained the wild type human RORγt LBD fused to the DNA binding domain of the GAL4 protein. The second construct, pGL4.31 (Promega Cat no. C935A), contained multiple GAL4 responsive DNA elements upstream of firefly luciferase. […] The mutant construct was called pBIND-RORγt-AF2.
The pBIND vector contains the GAL4 DNA Binding Domain (GAL4 DBD) and the renilla luciferase gene under control of the SV40 promoter. Renilla luciferase expression serves as a control for transfection efficiency and cell viability.
The reporter assay was performed by transiently transfecting HEK293T cells with 5 μg of pBIND-RORγt LBD or pBIND-RORγt LBD-AF2 and 5 μg pGL4.31 (Promega Cat no. C935A) using Fugene 6 (Invitrogen Cat no. E2691) at a 1:6 ratio of DNA: Fugene 6 in a T-75 flask in which cells were at least 80% confluent. Twenty four hours after bulk transfection, cells were plated into 96-well plates at 50,000 cells/well in phenol-red free DMEM containing 5% Lipid Reduced FCS and Pen/Strep. Six hours after plating, cells were treated with compounds for 24 hours. Media was removed and cells were lysed with 50 μL 1× Glo Lysis Buffer (Promega). Dual Glo Luciferase Reagent (50 μL/well) was then added and firefly luciferase luminescence was read on an Envision after a ten minute incubation. Finally, Stop and Glo reagent (50 μL/well) was added and renilla luciferase luminescence was read on an Envision after a ten minute incubation. To calculate the effect of compounds on RORγt activity, the ratio of firefly to renilla luciferase was determined and plotted against compound concentration. Agonist compounds increase RORγt-driven luciferase expression, and antagonist or inverse agonist compounds decrease luciferase expression.

[2] = test system: IL-17 production by CD4 T cells; assay: Human Th17 Assay; format: cell-based; details: human CD4+ T cells under Th17 differentiation, 3 days, IL-17 in supernatant
Description: The human Th17 assay tests the effect of RORγt modulatory compounds on IL-17 production by CD4 T cells under conditions which favor Th17 differentiation.
Total CD4^+ T cells were isolated from the peripheral blood mononuclear cells (PBMC) of healthy donors using a CD4^+ T cell isolation kit II, following the manufacturer's instructions (Miltenyi Biotec). Cells were resuspended in a medium of RPMI-1640 supplemented with 10% fetal bovine serum, penicillin, streptomycin, glutamate, and β-mercaptoethanol and were added to 96-well plates at 1.5×10^5 per 100 μL per well. 50 μL of compound at titrated concentrations in DMSO were added into each well at final DMSO concentration at 0.2%. Cells were incubated for 1 hour, then 50 μL of Th17 cell differentiation medium was added to each well. […] Supernatants were collected and the accumulated IL-17 in culture was measured by using MULTI-SPOT® Cytokine Plate following manufacture's instruction (Meso Scale Discovery). The plate was read using Sector Imager 6000, and IL-17 concentration was extrapolated from the standard curve. The IC50s were determined by GraphPad.

SMILES | Kd [1] [µM] | IC50 (human RORγt LBD) [µM] | inhibition at 6 µM (human RORγt LBD; HEK-293T, 6 μM compound) [%] | IC50 [2] [µM]
COc1nc2ccc(C(O)c3cnc(C)n3C)cc2c(Cl)c1Cc1ccc(F)cc1 (single isomer, unassigned) [Example 8b] | 0.18 | > 6 | 31 | 
COc1nc2ccc(C(O)c3cnc(C)n3C)cc2c(Cl)c1Cc1ccc(F)cc1 (single isomer, unassigned) [Example 8c] | 0.095 | > 6 |  | 
COc1nc2ccc(C(O)c3cnnn3C)cc2c(Cl)c1Cc1ccc(-n2cccn2)cc1 (single isomer, unassigned) [Example 5c, (3-(4-(1H-Pyrazol-1-yl)benzyl)-4-chloro-2-methoxyquinolin-6-yl)(1-methyl-1H-1,2,3-triazol-5-yl)methanol] |  |  |  | 0.61
COc1nc2ccc(C(O)c3cnnn3C)cc2c(Cl)c1Cc1ccc(-n2cccn2)cc1 (single isomer, unassigned) [Example 5b, (3-(4-(1H-Pyrazol-1-yl)benzyl)-4-chloro-2-methoxyquinolin-6-yl)(1-methyl-1H-1,2,3-triazol-5-yl)methanol] |  |  |  | 1.5
COc1nc2ccc(C(O)c3cnc(C)n3C)cc2c(Cl)c1Cc1ccc(F)cc1 (centres unmarked) [Example 8a] |  | > 6 |  | 
